Data taken from PubChem BioAssay (NCI).
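Growth conditions: 96-well plates. Treatment: test compound, 48 hours, 5 concentrations. Analysis: linear interpolation between bracketing concentrations; unreached endpoints set to highest concentration. TGI marks complete inhibition of growth.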

Key:
Test in all cases: growth of human tumour cells (NCI), 48 h
K-562 leukemia = test system: K-562 leukemia
U251 CNS = test system: U251 CNS
UACC-257 melanoma = test system: UACC-257 melanoma
CAKI-1 renal = test system: CAKI-1 renal
M14 melanoma = test system: M14 melanoma
SR leukemia = test system: SR leukemia
OVCAR-5 ovarian = test system: OVCAR-5 ovarian
CCRF-CEM leukemia = test system: CCRF-CEM leukemia
DMS 114 small cell lung = test system: DMS 114 small cell lung
HCT-116 colon = test system: HCT-116 colon
RXF 393 renal = test system: RXF 393 renal
MALME-3M melanoma = test system: MALME-3M melanoma
SK-MEL-5 melanoma = test system: SK-MEL-5 melanoma
SF-539 CNS = test system: SF-539 CNS
KM12 colon = test system: KM12 colon
786-0 renal = test system: 786-0 renal
SNB-78 CNS = test system: SNB-78 CNS
XF 498 CNS = test system: XF 498 CNS
SNB-19 CNS = test system: SNB-19 CNS
SN12C renal = test system: SN12C renal
EKVX NSCLC = test system: EKVX NSCLC
MOLT-4 leukemia = test system: MOLT-4 leukemia
SK-MEL-2 melanoma = test system: SK-MEL-2 melanoma
OVCAR-3 ovarian = test system: OVCAR-3 ovarian
SF-268 CNS = test system: SF-268 CNS
HCT-15 colon = test system: HCT-15 colon
UACC-62 melanoma = test system: UACC-62 melanoma
SW-620 colon = test system: SW-620 colon
OVCAR-8 ovarian = test system: OVCAR-8 ovarian
HOP-92 NSCLC = test system: HOP-92 NSCLC
RPMI-8226 leukemia = test system: RPMI-8226 leukemia
UO-31 renal = test system: UO-31 renal
SF-295 CNS = test system: SF-295 CNS
NCI-H226 lung = test system: NCI-H226 lung
LOX IMVI melanoma = test system: LOX IMVI melanoma
A498 renal = test system: A498 renal
HCC-2998 colon = test system: HCC-2998 colon
HL-60(TB) leukemia = test system: HL-60(TB) leukemia
DLD-1 colon = test system: DLD-1 colon
KM20L2 colon = test system: KM20L2 colon
IGROV1 ovarian = test system: IGROV1 ovarian
DMS 273 small cell lung = test system: DMS 273 small cell lung
ACHN renal = test system: ACHN renal
NCI-H460 lung = test system: NCI-H460 lung
LXFL 529 NSCLC = test system: LXFL 529 NSCLC
OVCAR-4 ovarian = test system: OVCAR-4 ovarian
COLO 205 colon = test system: COLO 205 colon
HT29 colon = test system: HT29 colon
A549 NSCLC = test system: A549 NSCLC
M19-MEL melanoma = test system: M19-MEL melanoma
RXF-631 renal = test system: RXF-631 renal
NCI-H522 lung = test system: NCI-H522 lung
SK-MEL-28 melanoma = test system: SK-MEL-28 melanoma
TK-10 renal = test system: TK-10 renal
HOP-18 NSCLC = test system: HOP-18 NSCLC
SNB-75 CNS = test system: SNB-75 CNS
HOP-62 NSCLC = test system: HOP-62 NSCLC
NCI-H23 lung = test system: NCI-H23 lung
SK-OV-3 ovarian = test system: SK-OV-3 ovarian

CC1(C)N=C(c2ccccn2)C(c2ccccn2)=NC1(C)C
TGI (K-562 leukemia): > 100 µM | TGI (U251 CNS): > 100 µM | TGI (UACC-257 melanoma): > 100 µM | TGI (CAKI-1 renal): > 100 µM | TGI (M14 melanoma): > 100 µM | TGI (SR leukemia): > 100 µM | TGI (OVCAR-5 ovarian): > 100 µM | TGI (CCRF-CEM leukemia): > 100 µM | TGI (DMS 114 small cell lung): > 100 µM | TGI (HCT-116 colon): > 100 µM | TGI (RXF 393 renal): > 100 µM | TGI (MALME-3M melanoma): > 100 µM | TGI (SK-MEL-5 melanoma): > 100 µM | TGI (SF-539 CNS): > 100 µM | TGI (KM12 colon): > 100 µM | TGI (786-0 renal): > 100 µM | TGI (SNB-78 CNS): > 100 µM | TGI (XF 498 CNS): > 100 µM | TGI (SNB-19 CNS): > 100 µM | TGI (SN12C renal): > 100 µM | TGI (EKVX NSCLC): > 100 µM | TGI (MOLT-4 leukemia): > 100 µM | TGI (SK-MEL-2 melanoma): > 100 µM | TGI (OVCAR-3 ovarian): > 100 µM | TGI (SF-268 CNS): > 100 µM | TGI (HCT-15 colon): > 100 µM | TGI (UACC-62 melanoma): > 100 µM | TGI (SW-620 colon): > 100 µM | TGI (OVCAR-8 ovarian): > 100 µM | TGI (HOP-92 NSCLC): > 100 µM | TGI (RPMI-8226 leukemia): > 100 µM | TGI (UO-31 renal): > 100 µM | TGI (SF-295 CNS): > 100 µM | TGI (NCI-H226 lung): > 100 µM | TGI (LOX IMVI melanoma): > 100 µM | TGI (A498 renal): > 100 µM | TGI (HCC-2998 colon): > 100 µM | TGI (HL-60(TB) leukemia): > 100 µM | TGI (DLD-1 colon): > 100 µM | TGI (KM20L2 colon): > 100 µM | TGI (IGROV1 ovarian): > 100 µM | TGI (DMS 273 small cell lung): > 100 µM | TGI (ACHN renal): > 100 µM | TGI (NCI-H460 lung): > 100 µM | TGI (LXFL 529 NSCLC): > 100 µM | TGI (OVCAR-4 ovarian): > 100 µM | TGI (COLO 205 colon): > 100 µM | TGI (HT29 colon): > 100 µM | TGI (A549 NSCLC): > 100 µM | TGI (M19-MEL melanoma): > 100 µM | TGI (RXF-631 renal): > 100 µM

O=C1CSc2cc([N+](=O)[O-])ccc2N1
TGI (K-562 leukemia): > 100 µM | TGI (U251 CNS): > 100 µM | TGI (UACC-257 melanoma): > 100 µM | TGI (CAKI-1 renal): > 100 µM | TGI (M14 melanoma): > 100 µM | TGI (OVCAR-5 ovarian): > 100 µM | TGI (CCRF-CEM leukemia): > 100 µM | TGI (DMS 114 small cell lung): > 100 µM | TGI (HCT-116 colon): > 100 µM | TGI (RXF 393 renal): > 100 µM | TGI (NCI-H522 lung): > 100 µM | TGI (MALME-3M melanoma): > 100 µM | TGI (SK-MEL-5 melanoma): > 100 µM | TGI (SF-539 CNS): > 100 µM | TGI (KM12 colon): > 100 µM | TGI (786-0 renal): > 100 µM | TGI (SNB-78 CNS): > 100 µM | TGI (SK-MEL-28 melanoma): > 100 µM | TGI (XF 498 CNS): > 100 µM | TGI (TK-10 renal): > 100 µM | TGI (SNB-19 CNS): > 100 µM | TGI (SN12C renal): > 100 µM | TGI (EKVX NSCLC): > 100 µM | TGI (HOP-18 NSCLC): > 100 µM | TGI (MOLT-4 leukemia): > 100 µM | TGI (SK-MEL-2 melanoma): > 100 µM | TGI (OVCAR-3 ovarian): > 100 µM | TGI (SF-268 CNS): > 100 µM | TGI (HCT-15 colon): > 100 µM | TGI (UACC-62 melanoma): > 100 µM | TGI (SW-620 colon): > 100 µM | TGI (OVCAR-8 ovarian): > 100 µM | TGI (SNB-75 CNS): > 100 µM | TGI (HOP-62 NSCLC): > 100 µM | TGI (SF-295 CNS): > 100 µM | TGI (NCI-H226 lung): > 100 µM | TGI (LOX IMVI melanoma): > 100 µM | TGI (A498 renal): > 100 µM | TGI (NCI-H23 lung): > 100 µM | TGI (HCC-2998 colon): > 100 µM | TGI (DLD-1 colon): > 100 µM | TGI (KM20L2 colon): > 100 µM | TGI (IGROV1 ovarian): > 100 µM | TGI (DMS 273 small cell lung): > 100 µM | TGI (ACHN renal): > 100 µM | TGI (SK-OV-3 ovarian): > 100 µM | TGI (NCI-H460 lung): > 100 µM | TGI (LXFL 529 NSCLC): > 100 µM | TGI (OVCAR-4 ovarian): > 100 µM | TGI (COLO 205 colon): > 100 µM | TGI (HT29 colon): > 100 µM | TGI (A549 NSCLC): > 100 µM | TGI (M19-MEL melanoma): > 100 µM | TGI (RXF-631 renal): > 100 µM

O=C1/C(=C/c2ccc(Br)cc2)CCC/C1=C\c1ccc(Br)cc1
TGI (K-562 leukemia): 21.2 µM | TGI (U251 CNS): 20.5 µM | TGI (UACC-257 melanoma): 16.2 µM | TGI (CAKI-1 renal): > 100 µM | TGI (M14 melanoma): 11.5 µM | TGI (CCRF-CEM leukemia): 24.4 µM | TGI (DMS 114 small cell lung): 38.7 µM | TGI (HCT-116 colon): 3.1 µM | TGI (RXF 393 renal): 18.9 µM | TGI (NCI-H522 lung): 39.2 µM | TGI (MALME-3M melanoma): 51 µM | TGI (SK-MEL-5 melanoma): 27.1 µM | TGI (SF-539 CNS): 33.8 µM | TGI (KM12 colon): 10.9 µM | TGI (786-0 renal): 33.8 µM | TGI (SNB-78 CNS): 58.3 µM | TGI (SK-MEL-28 melanoma): 14.1 µM | TGI (XF 498 CNS): 52 µM | TGI (TK-10 renal): 83.1 µM | TGI (SNB-19 CNS): 46 µM | TGI (SN12C renal): 53 µM | TGI (EKVX NSCLC): 62.5 µM | TGI (HOP-18 NSCLC): 78.6 µM | TGI (MOLT-4 leukemia): 23.5 µM | TGI (SK-MEL-2 melanoma): 63 µM | TGI (OVCAR-3 ovarian): 15.9 µM | TGI (SF-268 CNS): > 100 µM | TGI (HCT-15 colon): 31.1 µM | TGI (UACC-62 melanoma): 39.9 µM | TGI (SW-620 colon): 89 µM | TGI (OVCAR-8 ovarian): 22 µM | TGI (RPMI-8226 leukemia): 5.26 µM | TGI (SNB-75 CNS): 69.3 µM | TGI (UO-31 renal): 24.7 µM | TGI (HOP-62 NSCLC): 53.3 µM | TGI (A498 renal): 16.1 µM | TGI (NCI-H23 lung): 21.2 µM | TGI (HCC-2998 colon): 6.48 µM | TGI (HL-60(TB) leukemia): 13.5 µM | TGI (DLD-1 colon): 31.6 µM | TGI (KM20L2 colon): > 100 µM | TGI (IGROV1 ovarian): 38.7 µM | TGI (DMS 273 small cell lung): 15.7 µM | TGI (ACHN renal): 29.8 µM | TGI (SK-OV-3 ovarian): > 100 µM | TGI (NCI-H460 lung): 28.8 µM | TGI (LXFL 529 NSCLC): 14.7 µM | TGI (OVCAR-4 ovarian): 36.2 µM | TGI (COLO 205 colon): 28.4 µM | TGI (HT29 colon): 4.27 µM | TGI (A549 NSCLC): 35.3 µM | TGI (M19-MEL melanoma): 32.9 µM | TGI (RXF-631 renal): 18.1 µM
